Source: patent US20240327415A1, “Multicomponent Complexes, Including Salts, Crystalline Forms, and Hydrates and Solvates of ENT1 Inhibitors” (iTeos Belgium SA, priority 2023, published 2024)
≈ marks a conversion by molar mass, not a printed value. Like-named read-outs stand apart in the source and are kept apart here.

Experiments:
Assay type in all cases: physicochemical
[1] = Karl Fischer coulometric titration (water content)
Protocol: In the examples below, KF titration measured using either an In Motion KF Autosampler or Direct Addition Method. The In Motion KF Autosampler was carried out via the following procedure. 15-20 mg of solid was weighed into a 10 mL glass vial and tightly sealed with a screw cap. Samples were analyzed using a Mettler Toledo C30SX and an InMotion KFOven Autosampler at 130° C. Samples were analyzed in duplicate and an average moisture content reported. See table below for further details.
The Direct Addition Method was carried out via the following procedure. 15-20 mg of solid material was accurately weighed into a vial. The solid was then manually introduced into the titration cell of a Mettler Toledo C30 Compact Titrator. The vial was back-weighed after the addition of the solid and the weight of the added solid entered on the instrument. Titration was initiated once the sample had fully dissolved in the cell. The water content was calculated automatically by the instrument as a percentage and the data printed.

[2] = TG/DSC and DSC thermal analysis; settings: for TGA/DSC thermal event, onset: value before the brackets; for TGA/DSC thermal event, peak: value in brackets
Protocol: (§1) In the examples below, to measure TGA/DSC, 2-10 mg of material was added into a pre-tared open aluminum pan and loaded into a TA Instruments Discovery SDT 650 Auto—Simultaneous DSC and held at room temperature. The sample was then heated at a rate of 10° C./min from 30° C. to 400° C. during which time the change in sample weight was recorded along with the heat flow response (DSC). Nitrogen was used as the sample purge gas, at a flow rate of 200 cm^3/min.
(§2) METHOD A: In Example 3, 1-5 mg of material was weighed into an aluminum DSC pan and sealed non-hermetically with a pierced aluminum lid. The sample pan was then loaded into a TA DSC2500 and held at 20° C. Once a stable heat-flow response was obtained, the sample and reference were heated to an upper temperature of 200° C. at a scan rate of 10° C./min and the resulting heat flow response monitored. The sample was held at the upper temperature for 3 minutes, before it was cooled at 10° C./min to 20° C., reheated to the upper temperature at 10° C./min, and then cooled again to 20° C. at the same rate. Nitrogen was used as the purge gas, at a flow rate of 50 cm^3/min.
as §2, with “B:” for “A:”, “Examples 2A, 14, and 17,” for “Example 3,”, “−80° C. and then” for “20° C.,”, “C./min.” for “C./min, and then cooled again to 20° C. at the same rate.”
METHOD C: In Example 5, 1-5 mg of a sample were weighed into an aluminum DSC pan and sealed non-hermetically with an aluminum lid. The sample pan was then loaded into a TA Instruments Discovery DSC 2500 differential scanning calorimeter equipped with a RC90 cooler. The sample and reference were heated to 190° C. at a scan rate of 10° C./min and the resulting heat flow response monitored. The sample was re-cooled to −80° C. and then reheated again to 190° C. all at 10° C./min. Nitrogen was used as the purge gas, at a flow rate of 50 cm^3/min.
as §1, with “2-10” for “In the examples below, to measure TGA/DSC, 2-10”, “Auto-Simultaneous” for “Auto—Simultaneous”
as §2, with “1-5” for “METHOD A: In Example 3, 1-5”, “min,” for “minutes,”

[3] = pH solubility studies in buffers and biorelevant media (Example 16); settings: for solubility at 24 h: thermodynamic from solid
Protocol: (§3) Example 16—pH Solubility Studies—(1) Crystalline Form 2 Compound 1 di(hydrogen sulfate) trihydrate, (2) Crystalline Form 3 Compound 1 di(hydrogen sulfate), and (3) Crystalline Form 4 Compound 1 mono(hydrogen sulfate): pH solubility studies were carried out on the prepared crystalline Form 2 Compound 1 di(hydrogen sulfate) trihydrate, crystalline Form 3 Compound 1 di(hydrogen sulfate) and crystalline Form 4 Compound 1 mono(hydrogen sulfate) in the following media: (1) HCl/KCl, pH 1.2; (2) Acetate, pH 4.5; (3) Phosphate, pH 6.8; (4) FaSSIF; (5) FeSSIF; and (6) FaSSGF. Slurries of the hydrogen sulfate forms were prepared in the appropriate medium and stirred at 25° C. For the experiments in the buffer media, the pH of the slurry samples was measured and adjusted as required after 1 hour and 23 hours of the slurrying. Additional solid was added where dissolution was observed post-adjustment. The pH of the samples in the biorelevant media was measured at the 23 hour timepoint. No pH adjustment was made for the biorelevant media. After a total of 24 hours of slurrying, the mother liquors were extracted via centrifugation, and the concentrations and solution purity were determined by HPLC. The residual solids were isolated and analyzed by XRPD and are shown in FIG. 77, FIG. 78, and FIG. 79. The assessment was repeated for some of the samples, where required.

[4] = as above; parameters: key: A: amorphous; Crystalline Form 10 mono(hydrogen sulfate); settings: pH 6.8 (Phosphate), 25° C., 24 h
Protocol: as §3

[5] = after 24 hours slurrying in the media (Form 2: all samples except pH 4.5 Attempt 1)
[6] = listed as Crystalline Form 4 Compound 1 mono(hydrogen sulfate)
[7] = FaSSGF, 25° C., 24 h, pH after 24 h 1.98
[8] = FaSSIF, 25° C., 24 h, pH after 24 h 3.93
[9] = FeSSIF, 25° C., 24 h, pH after 24 h 4.34
[10] = pH 1.2 (HCl/KCl), 25° C., 24 h, pH after 24 h 1.57→1.33
[11] = pH 4.5 (Acetate), 25° C., 24 h, pH after 24 h 4.43
[12] = pH 6.8 (Phosphate), 25° C., 24 h, pH after 24 h 5.19→6.94

Structure (SMILES): CCCN1CCNCCCNC(=O)c2cc(OC)c(OC)c(c2)OCCC[C@@H](OC(=O)c2cc(OC)c(OC)c(OC)c2)CC1
- KF moisture content [1]: 6.74% moisture
- DSC (onset/peak): onset [2]: 144 °C
- DSC (onset/peak): peak [2]: 158 °C
- TGA/DSC mass loss [2]: 7.3% mass loss
- TGA/DSC thermal event, onset [2]: 130 °C
- TGA/DSC thermal event, peak [2]: 149 °C
- ML purity ([3]; FaSSGF, 25° C., 24 h, pH after 24 h 0.93): 99.67 % area
- solubility at 24 h ([3]; FaSSGF, 25 °C, pH 0.93, fassgf or other biorelevant, FaSSGF, 25° C., 24 h, pH after 24 h 0.93, read-out: Solub.): 81.1 mg/mL (≈ 128 mM)
- ML purity ([3]; FaSSIF, 25° C., 24 h, pH after 24 h 1.12): 99.80 % area
- solubility at 24 h ([3]; FaSSIF, 25 °C, pH 1.12, fassif, FaSSIF, 25° C., 24 h, pH after 24 h 1.12, read-out: Solub.): 76.6 mg/mL (≈ 121 mM)
- ML purity ([3]; FeSSIF, 25° C., 24 h, pH after 24 h 1.07): 99.72 % area
- solubility at 24 h ([3]; FeSSIF, 25 °C, pH 1.07, fessif, FeSSIF, 25° C., 24 h, pH after 24 h 1.07, read-out: Solub.): 133 mg/mL (≈ 211 mM)
- solubility at 24 h ([3]; HCl/KCl buffer, 25 °C, pH 1.2, simulated gastric fluid, pH 1.2 (HCl/KCl), attempt 1, 25° C., 24 h, pH after 24 h 0.98→1.22, read-out: Solub.): > 86.7 mg/mL
- solubility at 24 h ([3]; acetate buffer pH 4.5, 25 °C, pH 4.5, aqueous buffer, pH 4.5 buffer media, Attempt 1, 25° C., 24 hours, read-out: solubility): < 20 mg/mL
- solubility at 24 h ([3]; acetate buffer, 25 °C, pH 4.5, aqueous buffer, pH 4.5 (Acetate), attempt 1, 25° C., 24 h, pH after 24 h 4.53, read-out: Solub.): 17.8 mg/mL (≈ 28.2 mM)
- solubility at 24 h ([3]; acetate buffer, 25 °C, pH 4.5, aqueous buffer, pH 4.5 (Acetate), attempt 2, 25° C., 24 h, pH after 24 h 1.68→4.62, read-out: Solub.): 94.5 mg/mL (≈ 150 mM)
- solution purity of the extracted mother liquors [3, 5]: > 99 % area
- solubility at 24 h ([3]; buffers and biorelevant media, 25 °C, pH 1.2, aqueous buffer, pH 1.2 and 4.5 buffers and all the biorelevant media, slurry 25° C., 24 hours, read-out: solubility): > 75 mg/mL
- pH solubility ([3]; pH 1.2): pH 1.2: >87 mg/mL
- pH solubility: residual solid ([3]; pH 1.2): mg/mL, no solid
- ML purity ([3]; pH 1.2 (HCl/KCl), attempt 1, 25° C., 24 h, pH after 24 h 0.98→1.22): 99.13 % area
- pH solubility ([3]; pH 4.5): pH 4.5: 95 mg/mL
- pH solubility: residual solid ([3]; pH 4.5): mg/mL, Form 4
- ML purity ([3]; pH 4.5 (Acetate), attempt 1, 25° C., 24 h, pH after 24 h 4.53): 89.50 % area
- ML purity ([3]; pH 4.5 (Acetate), attempt 2, 25° C., 24 h, pH after 24 h 1.68→4.62): 99.76 % area
- solution purity of the extracted mother liquors ([3]; pH 4.5 Attempt 1): 89 % area
- pH solubility ([3]; pH 6.8): pH 6.8: 12 mg/mL
- pH solubility: residual solid ([3]; pH 6.8): mg/mL, Gum
- ML purity ([3]; pH 6.8 (Phosphate), attempt 1, 25° C., 24 h, pH after 24 h 1.01→6.87): 99.43 % area
- solubility at 24 h ([3]; phosphate buffer, 25 °C, pH 6.8, aqueous buffer, pH 6.8 (Phosphate), attempt 1, 25° C., 24 h, pH after 24 h 1.01→6.87, read-out: Solub.): 12 mg/mL (≈ 19 mM)
- solubility at 24 h ([3]; phosphate buffer, 25 °C, pH 6.8, aqueous buffer, pH 6.8 (Phosphate), attempt 2, 25° C., 24 h, pH after 24 h 4.79→6.90, read-out: Solub.): 6.1 mg/mL (≈ 9.66 mM)

Structure (SMILES): COc1cc(C(=O)O[C@@H]2CCCOc3cc(cc(OC)c3OC)C(=O)NCCCN3CCCN(CC2)CC3)cc(OC)c1OC.O=S(=O)(O)O
- KF moisture content [1]: 14.87% moisture
- DSC (onset/peak): onset [2]: 113 °C
- DSC (onset/peak): peak [2]: 119 °C
- TGA/DSC mass loss [2, 6]: 15.5% mass loss
- TGA/DSC thermal event, onset [2, 6]: 148 °C
- TGA/DSC thermal event, peak [2, 6]: 160 °C
- XRPD of residual solids [4]: A
- ML purity [3, 7]: 99.82 % area
- Solub. [3, 7]: 36.7 mg/mL
- ML purity [3, 8]: 99.86 % area
- Solub. [3, 8]: 44.9 mg/mL
- ML purity [3, 9]: 99.69 % area
- Solub. [3, 9]: 124.2 mg/mL
- solution purity of the extracted mother liquors [3, 5]: > 98 % area
- pH solubility ([3]; pH 1.2): pH 1.2: 134 mg/mL
- pH solubility: residual solid ([3]; pH 1.2): mg/mL, Form 4
- ML purity [3, 10]: >99.99 % area
- Solub. [3, 10]: 134.1 mg/mL
- solubility ([3]; pH 1.2 and FeSSIF media, 25° C., 24 hours): > 100 mg/mL
- pH solubility ([3]; pH 4.5): pH 4.5: 47 mg/mL
- pH solubility: residual solid ([3]; pH 4.5): mg/mL, Form 4
- ML purity [3, 11]: 99.86 % area
- Solub. [3, 11]: 46.9 mg/mL
- pH solubility ([3]; pH 6.8): pH 6.8: 62 mg/mL
- pH solubility: residual solid ([3]; pH 6.8): mg/mL, Gum
- ML purity [3, 12]: 98.30 % area
- Solub. [3, 12]: 62.0 mg/mL
- solubility ([3]; the other media assessed, 25° C., 24 hours): 30 to 80 mg/mL
